The text below walks through data of article PMC7179673, “A New Series of Carlactonoic Acid Based Strigolactone Analogs for Fundamental and Applied Research” (Frontiers in Plant Science, 2020).

Read-outs that look alike come from different tables or passages of the source.

The target of test [1] is T1, OsD14 (Oryza sativa, UniProt Q10QA5).
T1 construct: gene D14
T1 sequence (Q10QA5 1-318): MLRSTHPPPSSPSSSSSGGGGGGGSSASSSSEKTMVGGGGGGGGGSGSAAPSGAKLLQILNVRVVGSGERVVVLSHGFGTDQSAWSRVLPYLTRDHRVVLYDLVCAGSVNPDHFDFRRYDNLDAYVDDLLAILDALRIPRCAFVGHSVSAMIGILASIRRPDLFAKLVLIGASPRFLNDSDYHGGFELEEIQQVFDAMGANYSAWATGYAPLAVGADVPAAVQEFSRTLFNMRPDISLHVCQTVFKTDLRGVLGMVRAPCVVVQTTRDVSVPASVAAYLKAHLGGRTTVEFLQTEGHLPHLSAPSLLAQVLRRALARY
The test can be described thus: competitive YLG (Yoshimulactone Green) hydrolysis assay with purified protein. It is filed as biochemical.

In test [2] the target is T2, ShHTL7 (Striga hermonthica Hyposensitive to Light) (Striga hermonthica, UniProt A0A0M3PNA2).
T2 sequence (A0A0M3PNA2 1-271): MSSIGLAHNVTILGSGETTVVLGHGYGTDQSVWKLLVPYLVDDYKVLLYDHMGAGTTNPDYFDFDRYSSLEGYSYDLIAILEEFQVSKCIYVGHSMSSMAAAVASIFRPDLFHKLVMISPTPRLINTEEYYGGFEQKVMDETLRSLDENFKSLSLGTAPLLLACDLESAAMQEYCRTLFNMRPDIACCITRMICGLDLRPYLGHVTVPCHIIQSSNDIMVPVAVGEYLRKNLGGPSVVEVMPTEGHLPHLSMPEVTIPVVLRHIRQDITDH
The description is as above. It is filed as biochemical.

For the compound `CC1=C[C@H](O/C=C2/C(=O)O[C@@H]3c4ccccc4C[C@H]23)OC1=O` (racemic) [GR24, rac-GR24], the IC50 (as a rule, the point on the concentration scale where inhibition reaches its midpoint) in test [1] is 1.04 ± 0.09 µM; in test [2], 0.98 ± 0.26 µM. Consider `CC1=CC(O/C=C(\C(=O)N(C)C)c2ccccc2)OC1=O` (stereo not drawn) [MP16, (Z)-N,N-Dimethyl-3-((4-methyl-5-oxo-2,5-dihydrofuran-2-yl)oxy)-2-phenylacrylamide], for which the concentration for half-maximal inhibition (IC50) in test [2] (read-out: IC50) was found to be 4.37 ± 0.21 µM.
